Results taken from publication PMC4791643, “Reconstruction of diaminopimelic acid biosynthesis allows characterisation of Mycobacterium tuberculosis N-succinyl-L,L-diaminopimelic acid desuccinylase” (Scientific Reports, 2016).

Target: T1, MtDapE (Mycobacterium tuberculosis, UniProt P9WHS9)
T1 construct: gene dapE
Assay: inhibition in coupled assay, preincubated with inhibitor, NADPH at […] nm
Assay type: biochemical
Settings: for inhibition at 1000 µM: read-out: % inhibition at 1 mM

T1 sequence (P9WHS9 whole entry, looked up): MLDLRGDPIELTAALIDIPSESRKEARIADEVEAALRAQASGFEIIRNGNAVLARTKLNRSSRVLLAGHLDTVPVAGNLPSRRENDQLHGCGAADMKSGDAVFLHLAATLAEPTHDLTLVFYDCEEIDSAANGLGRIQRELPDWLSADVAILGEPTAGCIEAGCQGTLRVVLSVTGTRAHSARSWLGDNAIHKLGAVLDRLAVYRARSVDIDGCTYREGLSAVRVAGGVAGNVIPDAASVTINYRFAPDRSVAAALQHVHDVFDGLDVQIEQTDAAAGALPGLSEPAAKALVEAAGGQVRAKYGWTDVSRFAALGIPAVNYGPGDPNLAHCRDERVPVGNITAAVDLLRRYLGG

Structure (SMILES) | inhibition at 1000 µM [%] | inhibition at 10000 µM (read-out: % inhibition at 10 mM) [%]
C[C@H](CS)C(=O)N1CCC[C@H]1C(=O)O [L-captopril] | 23.3 | 
OB(O)c1cccs1 [2-thiopheneboronic acid] |  | 22.3
CC(C)(S)[C@H](N)C(=O)O [L-penicillamine] | 79.4 | 
